Data from US20250381157A1, “ANTIMICROBIAL COMPOUNDS” (priority 2022, published 2025).

Key:
Plasma stability Mouse = format: in vitro ADME
bacteria in culture = assay: in vitro toxicity to bacteria in culture; format: cell-based
[1] = Mouse ileum C-max after single PO dose; format: in vivo
recombinant human HDAC2 = target: T1, recombinant human HDAC2 (Homo sapiens, UniProt Q92769); assay: biochemical
T1 construct: purchased BPS 50002
Experimental: (§1) All of the compounds were dissolved in DMSO. A series of dilutions of the compounds were prepared with 10% DMSO in HDAC assay buffer and 5 μl of the dilution was added to a 50 μl reaction so that the final concentration of DMSO was 1% in all of reactions. The compounds were pre-incubated in duplicate at RT for 30 minutes in a mixture containing HDAC assay buffer, 5 μg BSA, HDAC enzyme and a test compound. After 30 minutes, the enzymatic reactions were initiated by the addition of HDAC substrate to a final concentration of 20 μM or 2 μM. The enzymatic reaction proceeded for 30 minutes at 37° C. After enzymatic reactions, 50 μl of 2×HDAC Developer was added to each well for the HDAC enzymes and the plate was incubated at room temperature for an additional 15 minutes. Fluorescence intensity was measured at an excitation of 360 nm and an emission of 460 nm using a Tecan Infinite M1000 microplate reader.
(§2) HDAC activity assays were performed in duplicates at each concentration. The fluorescent intensity data were analyzed using the computer software, Graphpad Prism. […] The percent activity in the presence of each compound was calculated according to the following equation: % activity=(F−Fb)/(Ft−Fb), where F=the fluorescent intensity in the presence of the compound. […] The IC50 value was determined by the concentration causing a half-maximal percent activity.

recombinant human HDAC4 = target: T2, recombinant human HDAC4 (Homo sapiens, UniProt P56524); assay: HDAC4 in-vitro enzymatic assay; format: biochemical
T2 construct: purchased BPS 50004
Experimental: as §1, §2

recombinant human HDAC6 = target: T3, recombinant human HDAC6 (Homo sapiens, UniProt Q9UBN7); assay: HDAC6 in-vitro enzymatic assay; format: biochemical
T3 construct: purchased BPS 50006
T3 sequence (Q9UBN7 1-1215): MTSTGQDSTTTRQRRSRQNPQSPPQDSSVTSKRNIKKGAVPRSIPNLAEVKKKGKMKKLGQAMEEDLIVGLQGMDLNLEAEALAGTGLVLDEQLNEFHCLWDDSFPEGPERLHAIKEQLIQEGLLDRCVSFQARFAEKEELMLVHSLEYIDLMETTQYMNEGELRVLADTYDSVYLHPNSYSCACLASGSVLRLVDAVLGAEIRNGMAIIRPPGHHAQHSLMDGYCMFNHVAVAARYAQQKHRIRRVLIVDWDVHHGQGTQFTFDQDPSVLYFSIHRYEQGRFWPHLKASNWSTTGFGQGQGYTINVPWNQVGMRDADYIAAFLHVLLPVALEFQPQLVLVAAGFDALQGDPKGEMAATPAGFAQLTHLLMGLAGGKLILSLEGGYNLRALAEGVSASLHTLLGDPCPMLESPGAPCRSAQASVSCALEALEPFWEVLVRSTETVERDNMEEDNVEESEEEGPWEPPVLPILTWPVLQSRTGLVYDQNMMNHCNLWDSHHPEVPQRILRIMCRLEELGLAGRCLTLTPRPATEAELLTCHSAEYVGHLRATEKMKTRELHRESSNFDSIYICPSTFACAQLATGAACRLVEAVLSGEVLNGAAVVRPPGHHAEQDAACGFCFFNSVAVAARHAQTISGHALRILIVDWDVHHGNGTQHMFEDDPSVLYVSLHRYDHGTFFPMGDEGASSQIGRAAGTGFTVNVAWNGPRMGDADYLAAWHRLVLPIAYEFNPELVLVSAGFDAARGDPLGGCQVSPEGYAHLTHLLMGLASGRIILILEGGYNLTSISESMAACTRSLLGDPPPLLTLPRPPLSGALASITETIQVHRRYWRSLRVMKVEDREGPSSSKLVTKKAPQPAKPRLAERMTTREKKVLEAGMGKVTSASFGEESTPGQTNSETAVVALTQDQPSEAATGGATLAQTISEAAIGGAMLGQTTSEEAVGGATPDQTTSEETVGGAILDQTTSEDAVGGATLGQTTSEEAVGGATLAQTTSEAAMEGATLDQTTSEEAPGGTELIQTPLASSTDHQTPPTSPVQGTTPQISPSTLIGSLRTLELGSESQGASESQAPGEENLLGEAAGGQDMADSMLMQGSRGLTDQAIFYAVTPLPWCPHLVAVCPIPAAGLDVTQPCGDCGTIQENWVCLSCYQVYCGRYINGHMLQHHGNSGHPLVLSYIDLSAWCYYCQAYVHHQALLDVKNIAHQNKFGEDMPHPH
Experimental: The purpose of the study is to determine the effects of Compound 1 on the enzymatic activities of recombinant human HDAC1, HDAC2, HDAC3, HDAC4, HDAC5, HDAC6, HDAC7, HDAC8, and HDAC9 using in-vitro enzymatic assays.
as §1, with “After enzymatic reactions, 50 μl of 2×HDAC Developer was added to each well for the HDAC enzymes and the plate was incubated at room temperature for an additional 15 minutes.” left out
as §2

recombinant human HDAC5 = target: T4, recombinant human HDAC5 (Homo sapiens, UniProt Q9UQL6); assay: HDAC5 in-vitro enzymatic assay; format: biochemical
T4 construct: purchased BPS 50005
Experimental: as §1, §2

recombinant human HDAC9 = target: T5, recombinant human HDAC9 (Homo sapiens, UniProt Q9UKV0); assay: HDAC9 in-vitro enzymatic assay; format: biochemical
T5 construct: purchased BPS 50009
Experimental: as §1, §2

recombinant human HDAC1 = target: T6, recombinant human HDAC1 (Homo sapiens, UniProt Q13547); assay: HDAC1 in-vitro enzymatic assay; format: biochemical
T6 construct: purchased BPS 50051
Experimental: as §1, §2

in vivo = conditions: mouse, po

T4 sequence (Q9UQL6 whole entry): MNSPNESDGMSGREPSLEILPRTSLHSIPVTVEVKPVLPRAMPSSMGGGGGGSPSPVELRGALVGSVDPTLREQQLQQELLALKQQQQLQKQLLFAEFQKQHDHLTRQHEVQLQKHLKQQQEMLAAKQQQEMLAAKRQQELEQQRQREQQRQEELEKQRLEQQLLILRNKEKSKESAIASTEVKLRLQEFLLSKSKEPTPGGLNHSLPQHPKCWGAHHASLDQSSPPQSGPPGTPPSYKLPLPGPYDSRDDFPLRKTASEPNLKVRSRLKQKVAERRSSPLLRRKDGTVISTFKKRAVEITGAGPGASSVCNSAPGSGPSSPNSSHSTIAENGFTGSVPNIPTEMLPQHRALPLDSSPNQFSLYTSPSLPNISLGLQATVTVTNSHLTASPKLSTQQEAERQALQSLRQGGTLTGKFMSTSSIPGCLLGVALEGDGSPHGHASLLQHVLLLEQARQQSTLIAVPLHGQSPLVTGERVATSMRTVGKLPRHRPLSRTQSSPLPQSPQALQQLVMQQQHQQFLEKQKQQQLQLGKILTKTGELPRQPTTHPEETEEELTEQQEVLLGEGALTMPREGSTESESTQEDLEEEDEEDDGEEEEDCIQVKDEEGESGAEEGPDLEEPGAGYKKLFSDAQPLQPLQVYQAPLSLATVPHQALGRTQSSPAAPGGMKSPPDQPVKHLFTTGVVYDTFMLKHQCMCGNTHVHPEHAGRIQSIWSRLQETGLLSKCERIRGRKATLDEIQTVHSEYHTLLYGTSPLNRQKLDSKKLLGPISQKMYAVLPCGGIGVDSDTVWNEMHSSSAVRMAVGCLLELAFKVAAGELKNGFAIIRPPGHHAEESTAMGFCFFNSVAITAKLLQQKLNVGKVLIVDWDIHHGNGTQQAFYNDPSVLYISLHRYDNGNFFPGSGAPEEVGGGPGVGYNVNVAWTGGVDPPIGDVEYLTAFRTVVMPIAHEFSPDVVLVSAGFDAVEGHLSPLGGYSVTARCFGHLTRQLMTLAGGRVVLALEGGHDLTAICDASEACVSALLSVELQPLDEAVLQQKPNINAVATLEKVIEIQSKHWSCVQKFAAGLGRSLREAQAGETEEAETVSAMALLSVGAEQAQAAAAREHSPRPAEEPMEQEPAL
T2 sequence (P56524 whole entry): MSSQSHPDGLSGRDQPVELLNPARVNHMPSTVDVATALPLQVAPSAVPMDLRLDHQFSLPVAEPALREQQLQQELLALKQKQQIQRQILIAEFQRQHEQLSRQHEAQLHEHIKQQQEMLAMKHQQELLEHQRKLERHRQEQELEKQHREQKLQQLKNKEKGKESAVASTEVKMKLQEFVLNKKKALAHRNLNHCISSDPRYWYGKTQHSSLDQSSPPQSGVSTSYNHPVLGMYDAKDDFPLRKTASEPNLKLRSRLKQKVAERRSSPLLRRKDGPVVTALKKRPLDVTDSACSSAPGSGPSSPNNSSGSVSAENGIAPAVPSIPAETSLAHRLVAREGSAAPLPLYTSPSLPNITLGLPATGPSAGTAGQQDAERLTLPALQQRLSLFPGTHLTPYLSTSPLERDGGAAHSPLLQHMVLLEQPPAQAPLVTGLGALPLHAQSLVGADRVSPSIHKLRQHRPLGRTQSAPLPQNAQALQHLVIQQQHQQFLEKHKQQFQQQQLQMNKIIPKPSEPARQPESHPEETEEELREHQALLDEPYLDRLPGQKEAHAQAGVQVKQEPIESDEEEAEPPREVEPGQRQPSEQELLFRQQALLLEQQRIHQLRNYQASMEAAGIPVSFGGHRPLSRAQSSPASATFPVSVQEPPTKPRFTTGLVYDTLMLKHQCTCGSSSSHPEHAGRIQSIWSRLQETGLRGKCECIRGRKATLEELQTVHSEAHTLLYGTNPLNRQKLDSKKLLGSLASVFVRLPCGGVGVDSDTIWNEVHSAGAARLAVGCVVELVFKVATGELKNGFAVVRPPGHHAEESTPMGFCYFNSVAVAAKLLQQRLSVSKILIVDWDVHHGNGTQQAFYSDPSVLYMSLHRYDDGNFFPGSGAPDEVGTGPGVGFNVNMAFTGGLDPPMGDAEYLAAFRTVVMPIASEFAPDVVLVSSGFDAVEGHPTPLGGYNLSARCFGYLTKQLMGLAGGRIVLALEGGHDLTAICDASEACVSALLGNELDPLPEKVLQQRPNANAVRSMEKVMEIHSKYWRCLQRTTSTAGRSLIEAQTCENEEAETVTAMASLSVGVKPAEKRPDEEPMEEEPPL
T5 sequence (Q9UKV0 whole entry): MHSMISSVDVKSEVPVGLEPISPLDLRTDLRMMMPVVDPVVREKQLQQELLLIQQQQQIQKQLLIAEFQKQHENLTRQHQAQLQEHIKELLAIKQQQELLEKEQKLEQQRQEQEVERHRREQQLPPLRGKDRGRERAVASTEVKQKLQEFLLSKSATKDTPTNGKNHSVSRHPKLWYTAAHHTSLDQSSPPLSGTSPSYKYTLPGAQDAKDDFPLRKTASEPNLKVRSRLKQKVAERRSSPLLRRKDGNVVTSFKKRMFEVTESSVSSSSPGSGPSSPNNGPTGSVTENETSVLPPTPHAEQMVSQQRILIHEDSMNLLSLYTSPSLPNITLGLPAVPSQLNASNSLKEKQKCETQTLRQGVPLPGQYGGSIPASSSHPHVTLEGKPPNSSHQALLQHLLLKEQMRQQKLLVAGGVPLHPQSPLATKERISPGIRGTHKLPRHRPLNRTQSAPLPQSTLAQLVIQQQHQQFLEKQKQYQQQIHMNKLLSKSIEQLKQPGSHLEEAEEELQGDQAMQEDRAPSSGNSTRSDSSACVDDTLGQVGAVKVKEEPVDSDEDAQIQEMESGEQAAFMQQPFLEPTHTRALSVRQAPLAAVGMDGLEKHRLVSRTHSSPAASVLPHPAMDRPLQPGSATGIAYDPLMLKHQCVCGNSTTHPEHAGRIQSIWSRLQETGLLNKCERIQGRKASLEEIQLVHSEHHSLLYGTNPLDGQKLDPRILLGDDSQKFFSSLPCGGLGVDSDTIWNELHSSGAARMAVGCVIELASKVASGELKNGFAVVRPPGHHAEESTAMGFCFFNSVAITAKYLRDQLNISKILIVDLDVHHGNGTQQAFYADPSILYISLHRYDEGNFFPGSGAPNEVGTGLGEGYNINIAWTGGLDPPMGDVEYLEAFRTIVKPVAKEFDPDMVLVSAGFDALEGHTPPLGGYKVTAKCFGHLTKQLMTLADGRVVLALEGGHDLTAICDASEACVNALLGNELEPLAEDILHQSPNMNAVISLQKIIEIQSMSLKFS
T6 sequence (Q13547 whole entry): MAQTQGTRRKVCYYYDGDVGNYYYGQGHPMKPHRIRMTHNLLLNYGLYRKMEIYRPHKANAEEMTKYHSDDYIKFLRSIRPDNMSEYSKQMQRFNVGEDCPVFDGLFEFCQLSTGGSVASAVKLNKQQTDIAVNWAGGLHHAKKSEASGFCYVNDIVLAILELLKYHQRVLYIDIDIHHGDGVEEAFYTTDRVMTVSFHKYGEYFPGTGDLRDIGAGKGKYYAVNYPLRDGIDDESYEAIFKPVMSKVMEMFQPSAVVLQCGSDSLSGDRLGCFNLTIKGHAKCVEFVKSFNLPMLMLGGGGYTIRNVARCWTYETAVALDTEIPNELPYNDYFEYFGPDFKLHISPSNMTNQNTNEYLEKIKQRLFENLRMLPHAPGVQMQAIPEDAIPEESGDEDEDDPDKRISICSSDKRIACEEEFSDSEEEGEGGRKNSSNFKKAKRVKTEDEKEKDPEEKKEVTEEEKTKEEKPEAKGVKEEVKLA
T1 sequence (Q92769 whole entry): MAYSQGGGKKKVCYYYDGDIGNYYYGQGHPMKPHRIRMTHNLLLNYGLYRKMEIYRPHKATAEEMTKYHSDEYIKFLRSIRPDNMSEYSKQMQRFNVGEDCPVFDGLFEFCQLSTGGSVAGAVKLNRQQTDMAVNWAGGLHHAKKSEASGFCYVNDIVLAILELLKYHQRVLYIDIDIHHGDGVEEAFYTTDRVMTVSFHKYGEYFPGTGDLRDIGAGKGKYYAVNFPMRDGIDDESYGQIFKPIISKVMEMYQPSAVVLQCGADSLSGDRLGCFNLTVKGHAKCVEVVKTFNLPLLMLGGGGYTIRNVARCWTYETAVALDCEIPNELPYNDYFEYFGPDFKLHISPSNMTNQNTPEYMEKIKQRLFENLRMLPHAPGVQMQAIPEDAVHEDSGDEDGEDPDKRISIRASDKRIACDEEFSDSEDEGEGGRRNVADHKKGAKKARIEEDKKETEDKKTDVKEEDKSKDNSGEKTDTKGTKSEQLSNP

With `C#CCOCC(=O)Nc1ccc(C(=O)Nc2ccccc2N)cc1` [Compound 1, N-(2-aminophenyl)-4-{2-[(prop-2-yn-1-yl)oxy]acetamido}benzamide] as the molecule, how does the “Plasma stability Mouse” value (Plasma stability Mouse) read?
Its value is “Low”.

And the “toxicity to bacteria in culture” value (bacteria in culture)?
Its value is “not toxic”.

And the “PO single 5 mg/kg mouse - Ileum C-max” value ([1]; PO single 5 mg/kg)?
The value was 0.9 µM.

And the “PO single 15 mg/kg mouse - Ileum C-max” value ([1]; PO single 15 mg/kg)?
The value was 2.0 µM.

What about the “PO single 50 mg/kg mouse - Ileum C-max” value ([1]; PO single 50 mg/kg) of the same molecule?
Its value is 7.1 µM.

What about the IC50 (recombinant human HDAC2) of the same molecule?
Its IC50 is about 1200 nM.

And the IC50 (recombinant human HDAC4)?
Its IC50 is over 200 µM.

What about the “Inhib. HDAC4” value (recombinant human HDAC4; @ 200 μM) of the same molecule?
The value was “No Inhib. @ 200 μM”.

What about the IC50 (recombinant human HDAC6) of the same molecule?
Its IC50 is over 200 µM.

What about the “Inhib. HDAC6” value (recombinant human HDAC6; @ 200 μM) of the same molecule?
The value was “No Inhib. @ 200 μM”.

And the IC50 (recombinant human HDAC5)?
The IC50 was over 200 µM.

And the “Inhib. HDAC5” value (recombinant human HDAC5; @ 200 μM)?
Its value is “No Inhib. @ 200 μM”.

What about the IC50 (recombinant human HDAC9) of the same molecule?
Its IC50 is over 200 µM.

What about the “Inhib. HDAC9” value (recombinant human HDAC9; @ 200 μM) of the same molecule?
The value was “No Inhib. @ 200 μM”.

And the IC50 (recombinant human HDAC1)?
The IC50 was under 1000 nM.

What about the inhibition at 1 µM (recombinant human HDAC1; @ 1 μM, read-out: Inhib. HDAC1) of the same molecule?
The inhibition at 1 µM was 75%.

And the MTD at 7 days (in vivo; 7 Days PO once daily MTD - mouse)?
Its MTD at 7 days is over 50 mg/kg.

What about the MTD at 7 days (in vivo; 7 Days PO twice daily MTD - mouse) of the same molecule?
Its MTD at 7 days is 50 mg/kg.
